Source: a melting point compilation (Tetko et al.; mined from patent text by program, amines drawn as free bases though some values may be those of a salt)

Row | Compound | melting point [°C]
1 | Cc1cc(OC(C)(C)C(=O)O)cc(C)c1C | 77 to 78
2 | CCOC(=O)C(=Cc1cc(C(C)(C)C)c(O)c(C(C)(C)C)c1)c1cccnc1 | 120
3 | O=c1[nH]c(=O)n([C@@H]2CO[C@@H](CO)O2)cc1/C=C/Br | 75 to 78
4 | Cc1nn(-c2c(Cl)cc(C(F)(F)F)cc2Cl)nc1Cl | 100 to 115
5 | CC(C)(C)OC(=O)NS(=O)(=O)N1CCC(F)(F)CC1 | 82 to 83
6 | CCC(=O)c1cc[nH]c(=O)c1 | 168
7 | Cc1cc(C#N)ccc1C1(CC2c3ccccc3Oc3ccccc32)NC(=O)NC1=O (configuration not stated) | 148 to 152
8 | Cc1cc(-c2ccc(-c3ccccc3)c(-c3ccc4c(c3)C(C)(C)CCC4(C)C)c2)ccc1C(=O)O | 130 to 132
9 | O=C1c2cccc3c([N+](=O)[O-])c(Br)cc(c23)C(=O)N1O | 232 to 233
10 | COc1cc2c(cc1OC)N(C(N)=O)C(=O)C2 | 206 to 209
11 | CNC(=O)CCC(=NNC(N)=S)c1ccccc1 | 205 to 207
12 | O=C(NCc1ccc(Cl)cc1)c1cnc2sc(C#CCCO)cc2c1O | 242 to 246
13 | COc1ncccc1-c1cc2cc(C(=O)NCCCN3CCOCC3)ccc2[nH]1 | 224 to 225
14 | CCCc1c(OCCCC(=O)NC(C)CCCc2cccnc2)ccc(C(C)=O)c1O (configuration not stated) | 97 to 99
15 | O=C(Nc1ccc(OC(F)(F)F)cc1)N1CC(c2cc(C(F)(F)F)ns2)C(c2ccc(Cl)cc2)=N1 (configuration not stated) | 101 to 104
16 | Cc1cc2c(=O)n(CCN3CCC(Nc4nc5ccccc5n4Cc4ccc(F)cc4)CC3)c(=S)[nH]c2s1 | 236
17 | C#CCNc1ccc([N+](=O)[O-])cc1[N+](=O)[O-] | 151 to 152
18 | O=C(Cn1cncn1)c1cccc2ccccc12 | 130
19 | Cc1c(C)c2c(c(C)c1O)CCC(C)(COc1ccc(CC3SC(=N)NC3=O)cc1)O2 (configuration not stated) | 205 to 207
20 | CCOC1CC2(C)C(CCC3C4CCCC4(C)CC(N(C)C)C32)CC1O (configuration not stated) | 54 to 59
21 | CCCC(O)C(C)C(=O)NCc1ccccc1 (configuration not stated) | 114 to 115
22 | c1coc2cc3ccnc3cc2c1 | 97
23 | CCS(=O)(=O)NCCCCn1c(=O)c2c(C)nc3cccc1n32 | 144 to 145
24 | CC1(C)CC(=O)c2cccc(C(=O)O)c2C1 | 167 to 168
25 | C=CCc1c(O)ccc2c1CCC(=O)N2 | 236 to 239
26 | CCN(CC)Cc1cc(NC(=O)Nc2ccc(Oc3cc(N)ncn3)cc2)cc(C(F)(F)F)c1 | 63 to 65

Row | Compound | melting point [°C]
27 | COc1cc(CC(C#N)=CNc2ccccc2)c2c(c1OC)OC(C1CC1)C=C2 (racemic) | 140
28 | Cc1onc(-c2ccc(F)cc2)c1-c1ccc(S(N)(=O)=O)c(F)c1 | 180 to 182
29 | Cc1c(-c2ccccc2)oc2c(C(=O)N(C)CCCl)cccc2c1=O | 126 to 128
30 | CC(C)c1cccc(C(C)C)c1NC(=O)CCN1CCN(CCCSc2nc3ccccc3o2)CC1 | 93 to 95
31 | COC(=O)[C@@H](CC(C)C)NC(=O)C[C@H]1O[C@H](c2cccc(OC)c2OC)c2cc(Cl)ccc2N(CC(CO)(OC)OC)C1=O | 110 to 111
32 | Clc1ccc(-c2ccnc(Nc3nc4ccccc4[nH]3)n2)cn1 | 308 to 311
33 | CCCCc1nc2c(N)nc3cccnc3c2s1 | 136 to 138
34 | O=c1cc(-c2ccoc2)c2ccc(Sc3cccc(-c4ccccc4)n3)cc2o1 | 175 to 178
35 | CCOC(=O)C(C)(C)Oc1ccc(OCc2oc(-c3ccc(C(F)(F)F)cc3)cc2C(=O)O)cc1 | 87 to 88
36 | COc1cc2ncnc(N3CCCCCc4ccccc43)c2cc1OC | 204 to 207
37 | Nc1ncc(S(=O)c2ccncc2)s1 (configuration not stated) | 193 to 195
38 | CC(C)(O)c1ccc(-c2ccc(N3C[C@H](Cn4ccnn4)OC3=O)cc2F)cn1 | 180
39 | COc1ccc(C=CC(=O)c2ccc(OCC3CO3)cc2)cc1 (configuration not stated) | 85 to 87
40 | Cn1ccc2ccc(O)cc21 | 74
41 | CC(C)(C)C(=O)CN1C(=O)C(NC(=O)Nc2ccccc2)CN(C2CCCCC2)c2ccccc21 (configuration not stated) | 247 to 251
42 | CCc1cccc(CC)c1N(CCl)C(=O)c1ccccc1 | 98 to 99
43 | Cc1ccc(C)n1N(C)c1ccc(Cl)nn1 | 93 to 94.5
44 | CC(=O)N[C@@H]1CCCC[C@H]1OCC(=O)O (relative stereo) | 141 to 143
45 | CCOC(=O)c1ccc(NCCOc2ccc3ccccc3c2)cc1 | 158 to 162
46 | CCC(C(=O)c1ccc(O)cc1)c1ccccc1 (configuration not stated) | 127 to 129
47 | CCCCc1nc(C(F)(F)C(F)(F)F)c(CO)n1Cc1ccc(-c2ccccc2C(=O)O)cc1 | 190 to 191
48 | CCCn1c(=O)nc(SC)c2c1ncn2C | 225 to 226
49 | CNc1ccc(C(O)(C(F)(F)Cl)C(F)(F)Cl)cc1 | 92 to 94
50 | CCC(=O)c1cc(SC)cc(CNC(=O)CCl)c1O | 202 to 204
51 | CN(c1ccccc1-c1ccc2cnc(Nc3ccc(C4CCN(CC(N)=O)CC4)cc3)nn12)S(C)(=O)=O | 170
52 | C=CCn1cc2cc3ncc(-c4ccc(OC)c(F)c4)nc3cc2n1 | 196 to 200

Row | Compound | melting point [°C]
53 | OCCCNc1nc2ccccc2n1-c1ccccc1 | 116 to 118
54 | Cc1nc2cccc(OCC(C)(C)NC(=O)C(C)C)c2c(N)c1C(=O)O | 184 to 186
55 | CCS(=O)(=O)c1ccc(-c2coc3ccc(-c4nnc(C)o4)nc23)cc1 | 246 to 247
56 | Cc1cccc(C2=CCN(c3ccc(O)nn3)CC2)c1 | 179
57 | CC(C)(C)c1cc2c(c(C(C)(C)C)c1)OC(=O)C2c1ccc2c(c1)-c1ccccc1C2 (configuration not stated) | 140 to 153
58 | O=C(C=Cc1ccc(Cl)c(Cl)c1)C1CC1 | 74 to 76
59 | CCOC(=O)CCCCNc1ncc([N+](=O)[O-])cc1[N+](=O)[O-] | 70 to 72
60 | N#CCSC(=S)SCc1ccc(Cl)cc1 | 41 to 43
61 | Clc1ccc(CN2CC=C(/C=C/c3cccc(Cl)c3)CC2)cc1 | 94 to 96
62 | CN(C)CC(c1ccc(OCc2ccccc2)cc1)C1(O)CCCCC1 (configuration not stated) | 140 to 142
63 | C[C@@H](n1cc(-c2ccccc2)nn1)[C@](O)(Cn1cncn1)c1ccc(F)cc1F | 148 to 149
64 | COc1ccc(-c2nc(-c3ccccc3)no2)cc1 | 97 to 98
65 | c1ccc(-c2ncc3[nH]c4c(c3n2)CCCC4)cc1 | 197 to 198
66 | CN1C(=O)N(c2nnc(C(C)(C)C)s2)C(=O)C1(C)OC(N)=O (configuration not stated) | 165
67 | OC1CSC(Oc2cccnc2F)C(O)C1O (configuration not stated) | 85 to 87
68 | CCNC1(c2ccccc2Cl)C(=O)N(Cc2ccc(C(=O)NC(C)(C)CO)cc2)c2ccc(Cl)cc21 (configuration not stated) | 170 to 172
69 | O=C(NN1CCCCCC1)C(CS)Cc1ccccc1 (configuration not stated) | 82
70 | COc1ccc2c(n1)c(CC[N+](=O)[O-])c1n2CCCC1 | 96 to 97
71 | O=C(/C=C/c1ccccc1[N+](=O)[O-])N1CCN(C(=O)c2cc(C(F)(F)F)cc(C(F)(F)F)c2)[C@H](Cc2c[nH]c3ccccc23)C1 | 125 to 133
72 | Nc1cccc(C23CC2C(=O)NC3=O)c1 (configuration not stated) | 135 to 137
73 | Cc1c(O)ccc2c1OCC(c1ccc(Cl)cc1)C2 (configuration not stated) | 98 to 100
74 | Nc1cc2c(Nc3ccc(F)c(Cl)c3)ncnc2cc1OCC1CC1 | 208
75 | O=C(c1nc(-c2ccc(F)cc2)c(-c2ccc(F)cc2)[nH]1)C(F)(F)F | 214 to 216
76 | CCOC(=O)c1cc(-c2ccc(-c3ccco3)cc2)n(-c2ccc(S(C)(=O)=O)cc2)n1 | 181
77 | COc1c(N2C[C@H](CF)[C@](C)(N)C2)c(F)cc2c(=O)c(C(=O)O)cn(C3CC3)c12 | 226 to 229
78 | COc1ccc(C(=C2CCCCC2)c2ccc(OC)cc2)cc1 | 106 to 107

Row | Compound | melting point [°C]
79 | N#CSc1ccc(N)c(Br)c1 | 74 to 79
80 | CCOC(=O)CSc1cc(NS(=O)(=O)c2cccs2)c2ccccc2c1O | 116 to 118
81 | COc1ccc(Nc2nc(C=O)cs2)cc1 | 108 to 110
82 | CC(C)(C)n1nc(Nc2ccccc2)c(C(N)=O)c1N | 225 to 227
83 | COc1ccc(OCC2NCCS2)cc1 (configuration not stated) | 54 to 55
84 | CONC(=N)c1ccc(-c2ccc(-c3ccc(C(=N)NOC)nc3)o2)cc1 | 235 to 237
85 | N#Cc1ccc(-c2ccc(-c3ccoc3)cc2)cc1 | 199 to 203
86 | CC(=O)N1CCN(NC(=O)c2ccc(F)cc2)CC1 | 209 to 210
87 | O=C(NC1CCN(CCc2[nH]c(=O)[nH]c2-c2ccc(F)cc2)CC1)c1ccccc1 | 218 to 220
88 | O=Cc1cnc2sc3cc(F)ccc3n12 | 182 to 183
89 | O=C1c2ccccc2C(F)(F)C(F)(F)c2ccccc21 | 70 to 75
90 | COc1ccc(-c2nn(C)c(=O)c3ccccc23)cc1Cl | 195
91 | Cc1ccc(-c2cc(C(=O)C=Cc3ccc(C(=O)O)cc3)cc(C(C)(C)C)c2OCC(C)C)cc1 | 243
92 | COc1ccccc1N1CCN(CCC2C(=O)NCN3CCC4SC=C(C4=O)C(=O)C23)CC1 (configuration not stated) | 162 to 164
93 | O=C1NC(=O)c2c1c(-c1cccc(Cl)c1Cl)cc1[nH]c3ccc(O)cc3c21 | 233 to 235
94 | Cc1c(Nc2c(C#N)cnc3sc(-c4ccc(OCCN(C)C)cc4)cc23)ccc2[nH]ccc12 | 182 to 184
95 | Cc1nc(Nc2ccc(C(C)C)cc2Br)c([N+](=O)[O-])c(-c2ccccc2C(F)(F)F)n1 | 146
96 | O=C(NCCl)Oc1cccc(Cl)c1 | 90
97 | CN1CCN(c2ccc(C3(C)C(=O)Nc4ccc(Cl)cc43)c(Cl)c2)CC1 (configuration not stated) | 155
98 | Cc1ccc(C2COc3cc(O)ccc3C2c2ccc(OCCN3CCCCC3)cc2)cc1 (configuration not stated) | 146 to 148
99 | CCCCC(Cn1cncn1)(C(=O)O)c1ccc(Cl)cc1 (configuration not stated) | 169 to 171
100 | COC(=O)N(C)CCc1ccc2[nH]cc(S(=O)(=O)c3ccccc3)c2c1 | 195 to 197
101 | CC(=O)NC[C@H]1CN(c2ccc3c(c2)CSCC3)C(=O)O1 | 139 to 140
102 | COc1cc(N2CCC(N3CCN(C)CC3)CC2)ccc1Nc1ncc2cc3ccccc3n2n1 | 176 to 179
